Assay results from ChEMBL document CHEMBL5154793, “Discovery of Thieno[2,3-d]pyrimidine-based KRAS G12D inhibitors as potential anticancer agents via combinatorial virtual screening” (Eur J Med Chem, 2022).

Key:
[1] = tested on: GTPase KRas (Homo sapiens), P01116 [G12D]; experiment: Binding affinity to human his-tagged KRAS G12D mutant assessed as change in entropy by isothermal titration calorimetry
[2] = Toxicity in BALB/c mouse allografted with mouse CT26 cells assessed as neutrophil level at 40 to 60 mg/kg, ip administered once a day for 10 days (reference value: 1.080 to 1.250 10^9/L); assay type: organism-based; conditions: in vivo, 240 h, dose 40-60 mg/kg, time 10 day
[3] = Toxicity in BALB/c mouse allografted with mouse CT26 cells assessed as MCHC level at 40 to 60 mg/kg, ip administered once a day for 10 days (reference value: 338 to 361 g/L); assay type: organism-based; conditions: in vivo, 240 h, dose 40-60 mg/kg, time 10 day
CT26 [4] = experiment: Induction of apoptosis in mouse CT26 cells assessed as viable cells at 2 uM measured after 24 hrs by PI/Annexin V staining based flow cytometric analysis (reference value: 84.8%); assay type: functional; conditions: read-out: Activity
[5] = Toxicity in BALB/c mouse allografted with mouse CT26 cells assessed as RDW-CV level at 40 to 60 mg/kg, ip administered once a day for 10 days (reference value: 13.3 to 23.8 %); assay type: organism-based; conditions: in vivo, 240 h, dose 40-60 mg/kg, time 10 day
CT26 [6] = experiment: Induction of apoptosis in mouse CT26 cells assessed as viable cells at 8 uM measured after 24 hrs by PI/Annexin V staining based flow cytometric analysis (reference value: 84.8%); assay type: functional; conditions: read-out: Activity
CT26 [7] = experiment: Antitumor activity against mouse CT26 cells allografted in BALB/c mouse assessed as tumor volume at 40 mg/kg, ip administered once a day for 10 days; assay type: functional; conditions: time 10 day
[8] = Toxicity in BALB/c mouse allografted with mouse CT26 cells assessed as MPV level at 40 to 60 mg/kg, ip administered once a day for 10 days (reference value: 15 to 63 fL); assay type: organism-based; conditions: in vivo, 240 h, dose 40-60 mg/kg, time 10 day
CT26 [9] = experiment: Antitumor activity against mouse CT26 cells allografted in BALB/c mouse assessed as inhibition of tumor growth at 60 mg/kg, ip administered once a day for 10 days; assay type: functional; conditions: CT26, 240 h, time 10 day, read-out: TGI
CT26 [10] = experiment: Induction of apoptosis in mouse CT26 cells assessed as early apoptotic cells at 4 uM measured after 24 hrs by PI/Annexin V staining based flow cytometric analysis (reference value: 11.2%); assay type: functional
CT26 [11] = experiment: Induction of apoptosis in mouse CT26 cells assessed as late apoptotic cells at 2 uM measured after 24 hrs by PI/Annexin V staining based flow cytometric analysis (reference value: 3.21%); assay type: functional
[12] = Toxicity in BALB/c mouse allografted with mouse CT26 cells assessed as monocyte level at 40 to 60 mg/kg, ip administered once a day for 10 days (reference value: 0.170 to 0.540 10^9/L); assay type: organism-based; conditions: in vivo, 240 h, dose 40-60 mg/kg, time 10 day
SW1990 [13] = experiment: Induction of apoptosis in human SW1990 cells assessed as viable cells at 8 uM measured after 24 hrs by PI/Annexin V staining based flow cytometric analysis (reference value: 82.9%); assay type: functional; conditions: read-out: Activity
CT26 [14] = experiment: Antitumor activity against mouse CT26 cells allografted in BALB/c mouse assessed as inhibition of tumor growth at 40 mg/kg, ip administered once a day for 10 days; assay type: functional; conditions: CT26, 240 h, time 10 day, read-out: TGI
GTPase KRas = GTPase KRas (Homo sapiens, UniProt P01116, G12D); experiment: Binding affinity to human his-tagged KRAS G12D mutant assessed as dissociation constant by isothermal titration calorimetry
SW1990 [15] = experiment: Induction of apoptosis in human SW1990 cells assessed as necrotic cells at 8 uM measured after 24 hrs by PI/Annexin V staining based flow cytometric analysis (reference value: 2.69%); assay type: functional
CT26 [16] = experiment: Antitumor activity against mouse CT26 cells allografted in BALB/c mouse assessed as tumor volume at 60 mg/kg, ip administered once a day for 10 days; assay type: functional; conditions: time 10 day
SW1990 [17] = experiment: Induction of apoptosis in human SW1990 cells assessed as late apoptotic cells at 8 uM measured after 24 hrs by PI/Annexin V staining based flow cytometric analysis (reference value: 3.75%); assay type: functional
CT26 [18] = experiment: Induction of apoptosis in mouse CT26 cells assessed as necrotic cells at 8 uM measured after 24 hrs by PI/Annexin V staining based flow cytometric analysis (reference value: 0.789%); assay type: functional
[19] = tested on: GTPase KRas (Homo sapiens), P01116 [G12D]; experiment: Inhibition of KRAS G12D mutant downstream signalling in human SW1990 cells assessed as suppression of ERK phosphorylation incubated for 24 hrs by pull down based Western blotting analysis; assay type: cell-based; conditions: dose <= 16.0 µM, DDE = dose-dependent effect
[20] = Toxicity in BALB/c mouse allografted with mouse CT26 cells assessed as effect on heart morphology at 40 to 60 mg/kg, ip administered once a day for 10 days by H and E staining based microscopic analysis; assay type: organism-based; conditions: in vivo, 240 h, dose 40-60 mg/kg, time 10 day
SW1990 [21] = experiment: Induction of apoptosis in human SW1990 cells assessed as early apoptotic cells at 4 uM measured after 24 hrs by PI/Annexin V staining based flow cytometric analysis (reference value: 10.7%); assay type: functional
[22] = Toxicity in BALB/c mouse allografted with mouse CT26 cells assessed as MCV level at 40 to 60 mg/kg, ip administered once a day for 10 days (reference value: 16 to 47 fL); assay type: organism-based; conditions: in vivo, 240 h, dose 40-60 mg/kg, time 10 day
CT26 [23] = experiment: Induction of apoptosis in mouse CT26 cells assessed as necrotic cells at 4 uM measured after 24 hrs by PI/Annexin V staining based flow cytometric analysis (reference value: 0.789%); assay type: functional
SW1990 [24] = experiment: Inhibition of GTP bound KRAS in human SW1990 cells assessed as down regulation of KRAS-GTP protein level incubated for 12 hrs by Pull-Down based Western blotting analysis; assay type: functional, cell-based; conditions: dose 10-20 µM, DDE = dose-dependent effect
CT26 [25] = experiment: Induction of apoptosis in mouse CT26 cells assessed as late apoptotic cells at 4 uM measured after 24 hrs by PI/Annexin V staining based flow cytometric analysis (reference value: 3.21%); assay type: functional
SW1990 [26] = experiment: Induction of apoptosis in human SW1990 cells assessed as viable cells at 4 uM measured after 24 hrs by PI/Annexin V staining based flow cytometric analysis (reference value: 82.9%); assay type: functional; conditions: read-out: Activity
NCI-H358 = experiment: Antiproliferative activity against human NCI-H358 cells harboring KRAS G12C mutant assessed as inhibition of cell viability after 24 hrs by MTT assay; assay type: functional, cell-based; conditions: NCI-H358, 24 h
HCT-116 = experiment: Antiproliferative activity against human HCT-116 cells harboring KRAS G13D mutant assessed as inhibition of cell viability after 24 hrs by MTT assay; assay type: functional, cell-based; conditions: HCT-116, 24 h
[27] = Toxicity in BALB/c mouse allografted with mouse CT26 cells assessed as HGB level at 40 to 60 mg/kg, ip administered once a day for 10 days (reference value: 0.319 to 108 g/L); assay type: organism-based; conditions: in vivo, 240 h, dose 40-60 mg/kg, time 10 day
CT26 [28] = experiment: Inhibition of KRAS G12D mutant (unknown origin) downstream signalling in mouse CT26 cells assessed as suppression of Raf phosphorylation incubated for 24 hrs by pull down based Western blotting analysis; assay type: cell-based; conditions: dose <= 16.0 µM, DDE = dose-dependent effect
[29] = Toxicity in BALB/c mouse allografted with mouse CT26 cells assessed as body weight loss at 40 to 60 mg/kg, ip administered once a day for 10 days; assay type: organism-based; conditions: in vivo, 240 h, dose 40-60 mg/kg, time 10 day
SW1990 [30] = experiment: Induction of apoptosis in human SW1990 cells assessed as viable cells at 2 uM measured after 24 hrs by PI/Annexin V staining based flow cytometric analysis (reference value: 82.9%); assay type: functional; conditions: read-out: Activity

GTPase KRas (Homo sapiens), P01116 [G12D], sequence (P01116 whole entry G12D, looked up): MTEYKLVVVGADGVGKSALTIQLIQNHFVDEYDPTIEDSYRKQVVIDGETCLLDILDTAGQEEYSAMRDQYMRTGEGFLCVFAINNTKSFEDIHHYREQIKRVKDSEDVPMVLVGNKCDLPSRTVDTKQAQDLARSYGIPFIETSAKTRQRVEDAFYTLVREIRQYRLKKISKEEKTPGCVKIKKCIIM
GTPase KRas, sequence (P01116 whole entry G12D): as the sequence (P01116 whole entry G12D, looked up) above

With `COc1ccc(C(F)(F)F)cc1-c1cc2c(N3CC4CCC(C3)N4)ncnc2s1` as the compound, how does the -TdeltaS [1] read?
Its -TdeltaS is 16.4 kcal/mol.

And the Activity [2]?
Its Activity is 1.92 10^9/L.

And the Activity [3]?
Its Activity is 336 g/L.

And the viability at 2 µM (CT26 [4])?
The viability at 2 µM was 78.6%.

And the Activity [5]?
Its Activity is 14%.

What about the viability at 8 µM (CT26 [6]) of the same compound?
Its viability at 8 µM is 8.57%.

What about the Activity (CT26 [7]) of the same compound?
Its Activity is 17%.

And the Activity [8]?
The Activity was 6.2 fL.

What about the inhibition in vivo at 60 mg/kg (CT26 [9]) of the same compound?
The inhibition in vivo at 60 mg/kg was 53%.

And the Activity (CT26 [10])?
The Activity was 36.4%.

And the Activity (CT26 [11])?
Its Activity is 4.59%.

What about the Activity [12] of the same compound?
Its Activity is 0.15 10^9/L.

What about the viability at 8 µM (SW1990 [13]) of the same compound?
The viability at 8 µM was 4.26%.

What about the inhibition in vivo at 40 mg/kg (CT26 [14]) of the same compound?
The inhibition in vivo at 40 mg/kg was 42%.

And the Kd (GTPase KRas)?
Its Kd is 33 nM.

And the Activity (SW1990 [15])?
Its Activity is 1.81%.

And the Activity (CT26 [16])?
Its Activity is 11%.

And the Activity (SW1990 [17])?
The Activity was 56.9%.

And the Activity (CT26 [18])?
Its Activity is 6.61%.

And the Activity [19]?
The Activity was “Dde”.

And the Activity [20]?
Its Activity is “Non-Toxic”.

And the Activity (SW1990 [21])?
The Activity was 14.2%.

And the Activity [22]?
Its Activity is 16.1 fL.

And the Activity (CT26 [23])?
The Activity was 3.87%.

And the inhibition (SW1990 [24])?
Its inhibition is “Dde”.

What about the Activity (CT26 [25]) of the same compound?
Its Activity is 20.9%.

What about the viability at 4 µM (SW1990 [26]) of the same compound?
The viability at 4 µM was 47.9%.

And the IC50 (NCI-H358)?
The IC50 was 4.5 µM.

And the IC50 (HCT-116)?
Its IC50 is 4.7 µM.

What about the Activity [27] of the same compound?
The Activity was 0.41 g/L.

What about the Activity (CT26 [28]) of the same compound?
Its Activity is “Dde”.

What about the Activity [29] of the same compound?
Its Activity is “Non-Toxic”.

And the viability at 2 µM (SW1990 [30])?
The viability at 2 µM was 74.4%.
